Data reported in the NIST ThermoML archive (doi:10.1016/j.tca.2015.06.017).

Test: xn = mol fraction of the nth substance listed
Settings: Liquid, Vibrating tube method

CC(C)CCl [1-chloro-2-methylpropane] + CCCCCCC
mass density [kg/m3]
Settings	303.15 K	313.15 K	323.15 K
100 kPa, x2 = 0.0531	851.74	840.36	828.79
100 kPa, x2 = 0.1023	839.04	827.85	816.48
100 kPa, x2 = 0.2009	815.06	804.22	793.26
100 kPa, x2 = 0.3009	792.69	782.2	771.57
100 kPa, x2 = 0.3981	772.58	762.38	752.04
100 kPa, x2 = 0.4986	753.31	743.42	733.39
100 kPa, x2 = 0.5998	735.29	725.7	715.95
100 kPa, x2 = 0.7038	718.11	708.77	699.34
100 kPa, x2 = 0.7993	703.45	694.32	685.15
100 kPa, x2 = 0.8995	689.05	680.21	671.24
100 kPa, x2 = 0.9507	682.07	673.34	664.49
2000 kPa, x2 = 0.0531	853.98	842.7	831.42
2000 kPa, x2 = 0.1023	841.31	830.21	819.08
2000 kPa, x2 = 0.2009	817.39	806.67	795.85
2000 kPa, x2 = 0.3009	794.98	784.62	774.11
2000 kPa, x2 = 0.3981	774.81	764.76	754.54
2000 kPa, x2 = 0.4986	755.48	745.75	735.78
2000 kPa, x2 = 0.5998	737.44	727.98	718.28
2000 kPa, x2 = 0.7038	720.22	711.05	701.64
2000 kPa, x2 = 0.7993	705.49	696.57	687.35
2000 kPa, x2 = 0.8995	691.14	682.44	673.46
2000 kPa, x2 = 0.9507	684.19	675.59	666.75
5000 kPa, x2 = 0.0531	857.38	846.39	835.4
5000 kPa, x2 = 0.1023	844.68	833.87	823.02
5000 kPa, x2 = 0.2009	820.73	810.25	799.77
5000 kPa, x2 = 0.3009	798.27	788.13	777.97
5000 kPa, x2 = 0.3981	778.06	768.2	758.35
5000 kPa, x2 = 0.4986	758.67	749.13	739.53
5000 kPa, x2 = 0.5998	740.59	731.29	721.98
5000 kPa, x2 = 0.7038	723.33	714.28	705.28
5000 kPa, x2 = 0.7993	708.59	699.76	690.97
5000 kPa, x2 = 0.8995	694.18	685.54	677.02
5000 kPa, x2 = 0.9507	687.22	678.7	670.29
7000 kPa, x2 = 0.0531	859.64	848.82	838.13
7000 kPa, x2 = 0.1023	846.92	836.28	825.7
7000 kPa, x2 = 0.2009	822.92	812.64	802.4
7000 kPa, x2 = 0.3009	800.42	790.49	780.57
7000 kPa, x2 = 0.3981	780.18	770.54	760.9
7000 kPa, x2 = 0.4986	760.74	751.42	742.03
7000 kPa, x2 = 0.5998	742.6	733.56	724.42
7000 kPa, x2 = 0.7038	725.32	716.53	707.68
7000 kPa, x2 = 0.7993	710.55	701.96	693.36
7000 kPa, x2 = 0.8995	696.12	687.72	679.35
7000 kPa, x2 = 0.9507	689.13	680.86	672.58
10000 kPa, x2 = 0.0531	862.96	852.24	841.75
10000 kPa, x2 = 0.1023	850.21	839.68	829.31
10000 kPa, x2 = 0.2009	826.15	815.97	805.94
10000 kPa, x2 = 0.3009	803.62	793.76	784.05
10000 kPa, x2 = 0.3981	783.33	773.76	764.32
10000 kPa, x2 = 0.4986	763.84	754.58	745.38
10000 kPa, x2 = 0.5998	745.64	736.65	727.75
10000 kPa, x2 = 0.7038	728.31	719.62	710.93
10000 kPa, x2 = 0.7993	713.5	705.01	696.57
10000 kPa, x2 = 0.8995	699.03	690.72	682.48
10000 kPa, x2 = 0.9507	692.03	683.8	675.7
20000 kPa, x2 = 0.0531	873	863.01	853.08
20000 kPa, x2 = 0.1023	860.17	850.29	840.6
20000 kPa, x2 = 0.2009	835.94	826.35	817.1
20000 kPa, x2 = 0.3009	813.23	804.06	794.98
20000 kPa, x2 = 0.3981	792.77	783.83	775.23
20000 kPa, x2 = 0.4986	773.13	764.52	755.93
20000 kPa, x2 = 0.5998	754.8	746.45	738.09
20000 kPa, x2 = 0.7038	737.29	729.18	721.08
20000 kPa, x2 = 0.7993	722.32	714.39	706.61
20000 kPa, x2 = 0.8995	707.71	699.99	692.36
20000 kPa, x2 = 0.9507	700.65	692.96	685.54
30000 kPa, x2 = 0.0531	882.09	872.66	863.29
30000 kPa, x2 = 0.1023	869.13	859.97	850.64
30000 kPa, x2 = 0.2009	844.8	835.81	826.96
30000 kPa, x2 = 0.3009	821.91	813.29	804.68
30000 kPa, x2 = 0.3981	801.3	792.99	784.58
30000 kPa, x2 = 0.4986	781.52	773.45	765.27
30000 kPa, x2 = 0.5998	763.03	755.17	747.25
30000 kPa, x2 = 0.7038	745.43	737.72	730.1
30000 kPa, x2 = 0.7993	730.33	722.79	715.4
30000 kPa, x2 = 0.8995	715.6	708.23	700.96
30000 kPa, x2 = 0.9507	708.5	701.14	694.07
40000 kPa, x2 = 0.0531	890.44	881.46	872.52
40000 kPa, x2 = 0.1023	877.39	868.66	859.81
40000 kPa, x2 = 0.2009	852.91	844.37	835.84
40000 kPa, x2 = 0.3009	829.87	821.69	813.46
40000 kPa, x2 = 0.3981	809.15	801.27	793.25
40000 kPa, x2 = 0.4986	789.24	781.56	773.87
40000 kPa, x2 = 0.5998	770.61	763.14	755.68
40000 kPa, x2 = 0.7038	752.83	745.56	738.29
40000 kPa, x2 = 0.7993	737.59	730.5	723.4
40000 kPa, x2 = 0.8995	722.73	715.76	708.85
40000 kPa, x2 = 0.9507	715.55	708.64	701.87
50000 kPa, x2 = 0.0531	898.25	889.63	881.03
50000 kPa, x2 = 0.1023	885.12	876.7	868.25
50000 kPa, x2 = 0.2009	860.41	852.23	844.11
50000 kPa, x2 = 0.3009	837.32	829.5	821.56
50000 kPa, x2 = 0.3981	816.52	808.88	801.14
50000 kPa, x2 = 0.4986	796.41	789.11	781.63
50000 kPa, x2 = 0.5998	777.65	770.57	763.29
50000 kPa, x2 = 0.7038	759.78	752.8	745.73
50000 kPa, x2 = 0.7993	744.45	737.67	730.8
50000 kPa, x2 = 0.8995	729.47	722.82	716.06
50000 kPa, x2 = 0.9507	722.23	715.59	709.05
60000 kPa, x2 = 0.0531	905.4	897.18	888.87
60000 kPa, x2 = 0.1023	892.33	884.27	876.05
60000 kPa, x2 = 0.2009	867.48	859.72	851.78
60000 kPa, x2 = 0.3009	844.24	836.81	829.15
60000 kPa, x2 = 0.3981	823.28	815.99	808.64
60000 kPa, x2 = 0.4986	803.13	796.1	788.91
60000 kPa, x2 = 0.5998	784.27	777.45	770.47
60000 kPa, x2 = 0.7038	766.25	759.57	752.78
60000 kPa, x2 = 0.7993	750.88	744.29	737.68
60000 kPa, x2 = 0.8995	735.73	729.33	722.83
60000 kPa, x2 = 0.9507	728.44	722.04	715.76
65000 kPa, x2 = 0.0531	908.87	900.74	892.62
65000 kPa, x2 = 0.1023	895.79	887.8	879.77
65000 kPa, x2 = 0.2009	870.84	863.12	855.45
65000 kPa, x2 = 0.3009	847.58	840.18	832.75
65000 kPa, x2 = 0.3981	826.58	819.3	812.18
65000 kPa, x2 = 0.4986	806.34	799.37	792.37
65000 kPa, x2 = 0.5998	787.42	780.62	773.88
65000 kPa, x2 = 0.7038	769.32	762.72	756.14
65000 kPa, x2 = 0.7993	753.84	747.34	741.15
65000 kPa, x2 = 0.8995	738.7	732.38	726.04
65000 kPa, x2 = 0.9507	731.35	725.02	718.95
